This is an account of results in ChEMBL document CHEMBL1157037, “Synthesis and in vitro antiproliferative activities of quinoline derivatives” (Eur J Med Chem, 2010).

Assay type in all cases: functional, cell-based
Test [1] is described as follows: Antiproliferative activity against human fibroblast cells after 48 hrs by resazurin reduction assay. A general note: Alamar Blue is a resazurin reagent that responds to reducing activity.
The next test concerns PA-1. Description: Antiproliferative activity against human PA1 cells after 48 hrs by resazurin reduction assay. Particulars: PA-1, 48 h.
The test system of another test is MCF7. Put plainly: Antiproliferative activity against human MCF7 cells after 48 hrs by resazurin reduction assay. As to conditions: MCF7, 48 h.

pIC50: −log10 of the molar value. A value given as a limit tells only on which side of the number the result lay.

The pIC50 is −log10 of the IC50, conventionally taken in molar units. The low end stands for a large IC50, the high end for a small IC50. Turning to `COc1ccc2ccc(-c3cc4ccccc4nc3OC)cc2n1`, the pIC50 was 4.27 in test [1], 4.44 with PA-1 and below 4.00 in the test on MCF7.

Regarding `CCOc1ccc2ccc(-c3cc4ccccc4nc3OCC)cc2n1`, the negative-log IC50 (pIC50) was 4.43 in test [1], 4.43 in the test on PA-1 and below 4.00 with MCF7.

For `CCOc1ccc2ccc(-c3cc4ccc(-c5cc6ccccc6nc5OCC)cc4nc3OCC)cc2n1`, the values for the pIC50 (in test [1]; in the test with PA-1; with MCF7) were below 4.00, 4.30 and below 4.00, respectively.
